Results on 2 compounds are retold here after patent US7232831B2, “Tetrahydro-β-carboline compounds and use thereof” (MediQuest Therapeutics, Inc., priority 2004, dated 2007).

For this assay, the system named is rats. The assay can be described thus: Forced Swimming Test (Depression Test Model). The format is in vivo. The following applies: delivered orally before swim test, all three doses 0.3, 3 and 30 mg/kg, observed for 6 minutes. An excerpt:
Forced Swimming Test (Depression Test Model)—Total immobility time of rats can be assessed during a forced swimming test Porsolt, R. D., Anton, G., Blavet, N., Jalfre, M. Behavioral despair in rats, a new model sensitive to antidepressant treatments. Eur. J Pharmacol. 1978, 47, 379-391. A shortened immobility period reflects anti-depressant-like effects of a test compound. MQT compounds were delivered orally to rats before the swim test.

`NCCCNC(=O)C1CCCN(C(=O)C2Cc3c([nH]c4ccccc34)CN2)C1` (centres unmarked) [MQT 1]: the “Total immobility time during forced swimming test” value is “reduction in immobility”. For `NCCCNCC1CCCN(CC2Cc3c([nH]c4ccccc34)CN2)C1` (centres unmarked) [MQT 2], the “Total immobility time during forced swimming test” value was “reduction in immobility”.
